Data as given in patent US20080220103A1, “METHOD FOR TREATING/CONTROLLING/KILLING FUNGI AND BACTERIA ON LIVING ANIMALS” (priority 2005, published 2008).
In brackets after ≈: the same amount, converted by molar mass. Several values for one entry are separate records, joined by “and”; a condition that tells them apart may be missing. Identical values can stand only once. Like-named read-outs stand apart in the source and are kept apart here.

What was measured:
T. mentagrophytes [1] = experiment: Minimum fungicidal concentration (Canton et al.); type: cell-based, Trichophyton mentagrophytes; conditions: for MFC: Trichophyton mentagrophytes
Procedure: (§1) Minimum fungicidal concentration (MFC): The minimum fungicidal concentrations of various agents were determined using the technique described by Canton et al. (Antimicrob Agents Chemother. 2004 8:2477-82). In that method, fungal conidia were collected following growth on potato dextrose agar (PDA) plates and were used to inoculate 96-well plates containing different concentrations of agents. Following incubation at 35° C. for 4 days (for dermatophytes) or 24 hours (for yeast), wells showing no visible growth were cultured to determine the MFC (defined as the lowest concentration of a given agent that kills>99.999% of fungal conidia or spores). The MFC value represents the level of the agent at which spores or conidia were killed.

All Yeasts = experiment: Minimum fungicidal concentration, yeasts; type: cell-based
Procedure: as §1

E. floccosum = experiment: Minimum fungicidal concentration (Canton et al.); type: cell-based, Epidermophyton floccosum; conditions: for MFC: Epidermophyton floccosum
Procedure: as §1

All dermatophytes = experiment: Minimum fungicidal concentration, pooled dermatophytes; type: cell-based, E. floccosum, T. rubrum, T. mentagrophytes
Procedure: as §1
In the following Tables, MIC50 and MIC90 are defined as the minimal concentrations of a compound that can inhibit 50% and 90% of the tested organisms, respectively.

T. mentagrophytes [2] = experiment: Post-treatment insole biopsy disc assay; type: cell-based, Trichophyton mentagrophytes
Text: (§2) Based on the above experiments, our disc biopsy assay employed Dr. Scholl's insole and leather discs as the optimal substrates representing materials used in shoes, and 30% isopropanol as the optimal vehicle to dissolve the agents to be tested in pre-treatment and post-treatment studies.
(§3) Two types of disc biopsy assays were used to evaluate the ability of different synthetic and natural substances to disinfect shoe material: (a) Pre-treatment assay: where discs were pre-treated with antifungals first and then infected with T. mentagrophytes, and (b) Post-treatment assay: where discs were first infected with T. mentagrophytes, then treated with drugs. These assays reveal the ability of different agents to prevent and treat shoe fungal contamination, respectively.
(§4) Post-treatment assays: To evaluate the ability of various agents to treat infected shoes, PDA plates were prepared on which […] T. mentagrophytes cells were evenly spread on their surface. Next, untreated biopsy discs were placed on these PDA plates and incubated for 4 days at 30° C. Incubating the biopsy discs in this manner allowed the fungi to invade the discs. Infected discs were picked and post-treated with different agents by spraying. Post-treated discs were allowed to air dry and were then placed on fresh, uninoculated PDA plates and incubated for 4 additional days at 30° C. Incubation of the discs under these conditions allows any fungi that are not killed by the sprayed agent to grow. In other words, agents that are effective in the treatment of shoe material will not show any fungal growth around the disc biopsy (FIG. 1C). In contrast, discs treated with ineffective agents will show fungal growth emanating from them (FIG. 1D). Diameter of the growth zone (GZD) was determined as a measure of the activity of the agent tested.

T. mentagrophytes [3] = experiment: Scanning electron microscopy of treated discs; type: cell-based, Trichophyton mentagrophytes; conditions: for SEM: fungal growth on insole, post-contamination treatment / SEM: fungal growth on insole, pretreatment: insole biopsy disc; for SEM: fungal growth on leather, pretreatment: leather biopsy disc
Procedure: Scanning electron microscopy (SEM) was used to monitor the ability of agents to eradicate fungal growth on shoe insoles or leather biopsy discs. Pre- and post-treated discs were processed for SEM by the method of Chandra et al. One set of discs was used as a control in which no drug pre- or post-treatment was performed. In addition, one set of biopsy discs was used as blank where no fungal cells or drug were added. Following treatment, discs were fixed with 2% glutaraldehyde for 2 h, and then washed with sodium cacodylate buffer (three times for 10 minutes each). The discs were then treated with 1% osmium tetraoxide (for 1 h at 4° C.) followed by a series of washing with sodium cacodylate buffer, followed by a two times washing with distilled water. Next, the discs were treated with 1% tannic acid washed three times with distilled water, and followed by 1% uranyl acetate with two water washings. The samples were then dehydrated through a series of ethanol solutions (range from 25% (vol/vol) ethanol in distilled water to absolute ethanol). Prepared samples were then sputter coated with Au/Pd (60/40) and viewed with Amray 1000B scanning electron microscope.

T. mentagrophytes [4] = experiment: Pre-treatment insole biopsy disc assay; type: cell-based, Trichophyton mentagrophytes
Text: (§5) Based on the above experiments, our disc biopsy assay employed Dr. Scholl's insole and leather discs as the optimal substrates representing materials used in shoes, and 30% isopropanol as the optimal vehicle to dissolve the agents to be tested in pre-treatment and post-treatment studies. Two types of disc biopsy assays were used to evaluate the ability of different synthetic and natural substances to disinfect shoe material: (a) Pre-treatment assay: where discs were pre-treated with antifungals first and then infected with T. mentagrophytes, and (b) Post-treatment assay: where discs were first infected with T. mentagrophytes, then treated with drugs. These assays reveal the ability of different agents to prevent and treat shoe fungal contamination, respectively. Pre-treatment assays: To evaluate the ability of different agents to prevent fungal contaminations of shoes, PDA plates were prepared on which 10^4 T. mentagrophytes cells were evenly spread. Next, discs from insoles and leather were treated as follows (with either agent or control vehicle): discs were pretreated with a single spray, spraying for 15 second or 30 second. Other discs were immersed in agent or vehicle for 30 min. Following this treatment, discs were air-dried by placing them in a Petri plate for 1 min. These dried discs were then placed (drug side down) on the seeded PDA plates. Plates were then incubated for 4 days at 30° C. Following incubation, fungal growth was recorded. […] Diameter of the clearance zone (CZD) was measured. The relative activity of different agents and control were assessed.

T. mentagrophytes [5] = experiment: Pre-treatment leather biopsy disc assay; type: cell-based, Trichophyton mentagrophytes
Text: as §5

T. mentagrophytes [6] = experiment: Post-treatment leather biopsy disc assay; type: cell-based, Trichophyton mentagrophytes
Text: as §2, §3, §4

T. rubrum = experiment: Post-treatment insole assay, combination (FIG. 10); type: cell-based, Trichophyton rubrum; conditions: 0.01% tolnaftate, 3% tea tree oil, singly or combined
[7] = T. mentagrophytes strain 2124, read-out: MFC
[8] = T. mentagrophytes strain 2125, read-out: MFC
[9] = T. mentagrophytes strain 2127, read-out: MFC
[10] = T. mentagrophytes strain 2128, read-out: MFC
[11] = T. mentagrophytes, n = 6, read-out: MFC, row MIC50
[12] = T. mentagrophytes, n = 6, read-out: MFC, row MIC90
[13] = E. floccosum strain 1666, read-out: MFC
[14] = E. floccosum strain 1798, read-out: MFC
[15] = E. floccosum strain 1925, read-out: MFC
[16] = E. floccosum strain 1926, read-out: MFC
[17] = E. floccosum strain 1961, read-out: MFC
[18] = E. floccosum strain 2165, read-out: MFC
[19] = E. floccosum, n = 6, read-out: MFC, row MIC50
[20] = E. floccosum, n = 6, read-out: MFC, row MIC90
[21] = All dermatophytes, n = 18, read-out: MFC, row MIC50
[22] = All dermatophytes, n = 18, read-out: MFC, row MIC90

Row | SMILES | MFC (T. mentagrophytes [1]; [7]) [µg/mL] | MFC (T. mentagrophytes [1]; [8]) [µg/mL] | MFC (T. mentagrophytes [1]; [9]) [µg/mL] | MFC (T. mentagrophytes [1]; [10]) [µg/mL] | MFC (T. mentagrophytes [1]; [11]) [µg/mL] | MFC (T. mentagrophytes [1]; [12]) [µg/mL] | MFC (E. floccosum; [13]) [µg/mL] | MFC (E. floccosum; [14]) [µg/mL] | MFC (E. floccosum; [15]) [µg/mL] | MFC (E. floccosum; [16]) [µg/mL] | MFC (E. floccosum; [17]) [µg/mL] | MFC (E. floccosum; [18]) [µg/mL] | MFC (E. floccosum; [19]) [µg/mL] | MFC (E. floccosum; [20]) [µg/mL] | MFC (All dermatophytes; [21]) [µg/mL] | MFC (All dermatophytes; [22]) [µg/mL] | Insoles Post-contamination Treatment (GZD, growth zone diameter) (T. mentagrophytes [2]; 1% spray in 30% isopropanol) [mm] | MFC range (row MIC Range) (T. mentagrophytes [1]; T. mentagrophytes, n = 6) [µg/mL] | SEM: fungal growth on insole, post-contamination treatment (T. mentagrophytes [3]) | SEM: fungal growth on insole, pretreatment (T. mentagrophytes [3]) | also measured
1 | Clc1ccc(COC(Cn2ccnc2)c2ccc(Cl)cc2Cl)c(Cl)c1 (centres unmarked) [Miconazole, miconazole] | > 8 | > 8 | > 8 | > 8 | > 8 | > 8 | 2 (≈ 4.81 µM) | 0.5 (≈ 1.2 µM) | 8 (≈ 19.2 µM) | > 8 | > 8 | > 8 | 8 (≈ 19.2 µM) | > 8 | 8 (≈ 19.2 µM) | > 8 | – | – | – | – | MFC Range (All Yeasts): 0.5 to 2 µg/mL; MFC (All dermatophytes; all T. mentagrophytes isolates and the majority of T. rubrum and E. floccosum isolates, read-out: MFC): ≥ 8 µg/mL
2 | CN(C/C=C/C#CC(C)(C)C)Cc1cccc2ccccc12 [Terbinafine, terbinafine] | 0.125 (≈ 0.429 µM) | 0.125 (≈ 0.429 µM) | 0.06 (≈ 0.206 µM) | 0.125 (≈ 0.429 µM) | 0.125 (≈ 0.429 µM) | 0.125 (≈ 0.429 µM) | 0.06 (≈ 0.206 µM) | 0.03 (≈ 0.103 µM) | 0.06 (≈ 0.206 µM) | 0.06 (≈ 0.206 µM) | 0.125 (≈ 0.429 µM) | 0.125 (≈ 0.429 µM) | 0.06 (≈ 0.206 µM) | 0.125 (≈ 0.429 µM) | 0.06 (≈ 0.206 µM) | 0.125 (≈ 0.429 µM) | 0 | 0.06 to 0.125 | complete clearance of fungal growth | completely eradicated fungal growth | SEM: fungal growth on leather, pretreatment (T. mentagrophytes [3]): completely eradicated fungal growth; MFC range (row MIC Range) (E. floccosum; E. floccosum, n = 6): 0.03 to 0.125 µg/mL; Insoles Pretreatment (CZD, clearance zone diameter) (T. mentagrophytes [4]; 1% spray in 30% isopropanol): 85 mm; MFC Range (All dermatophytes; All dermatophytes, n = 18): 0.03 to 0.125 µg/mL; Leather Pretreatment (CZD) (T. mentagrophytes [5]; 1% spray in 30% isopropanol): 85 mm; Leather Post-contamination Treatment (GZD) (T. mentagrophytes [6]; 1% spray in 30% isopropanol): 0 mm
3 | Cc1cccc(N(C)C(=S)Oc2ccc3ccccc3c2)c1 [Tolnaftate, tolnaftate] | 0.5 (≈ 1.63 µM) | 0.5 (≈ 1.63 µM) | 1 (≈ 3.25 µM) | 1 (≈ 3.25 µM) | 0.5 (≈ 1.63 µM) | 1 (≈ 3.25 µM) | 0.25 (≈ 0.813 µM) | 0.25 (≈ 0.813 µM) | 0.25 (≈ 0.813 µM) | 0.5 (≈ 1.63 µM) | 0.5 (≈ 1.63 µM) | 0.25 (≈ 0.813 µM) | 0.25 (≈ 0.813 µM) | 0.5 (≈ 1.63 µM) | 0.125 (≈ 0.407 µM) | 1 (≈ 3.25 µM) | 8 | 0.5 to 1 | minimally effective | completely eradicated fungal growth | Insoles Post-contamination Treatment (GZD, growth zone diameter) (T. mentagrophytes [2]; 2% spray in 30% isopropanol): 10 mm; fungal regrowth from established contamination (T. mentagrophytes [2]; 4% (w/v) in acetone, insole disc): no fungal regrowth was observed; effect of post-contamination treatment of insoles on fungal growth (T. rubrum): did not prevent growth of fungus; SEM: fungal growth on leather, pretreatment (T. mentagrophytes [3]): did not completely eradicate dermatophyte growth; MFC range (row MIC Range) (E. floccosum; E. floccosum, n = 6): 0.25 to 0.5 µg/mL; Insoles Pretreatment (CZD, clearance zone diameter) (T. mentagrophytes [4]; 1% spray in 30% isopropanol): 25 mm; Insoles Pretreatment (CZD, clearance zone diameter) (T. mentagrophytes [4]; 2% spray in 30% isopropanol): 10 mm; Insoles Pretreatment (CZD, clearance zone diameter) (T. mentagrophytes [4]; 2% spray in 30% isopropanol, listed as tolnaftate): 11 mm; preventive activity against dermatophytes infecting shoes (T. mentagrophytes [4]; acetone as vehicle): potent preventive activity; MFC Range (All dermatophytes; All dermatophytes, n = 18): 0.06 to 1.0 µg/mL and 0.06 to 1 µg/mL; MFC Range (All dermatophytes; All dermatophytes, n = 18, listed as tolnaftate): 0.06 to 0.125 µg/mL; Leather Pretreatment (CZD) (T. mentagrophytes [5]; 1% spray in 30% isopropanol): 18 mm; Leather Pretreatment (CZD) (T. mentagrophytes [5]; 1% spray in 30% isopropanol, listed as tolnaftate): 16 mm; Leather Pretreatment (CZD) (T. mentagrophytes [5]; 2% spray in 30% isopropanol): 6 mm; Leather Post-contamination Treatment (GZD) (T. mentagrophytes [6]; 1% spray in 30% isopropanol): 11 mm; Leather Post-contamination Treatment (GZD) (T. mentagrophytes [6]; 2% spray in 30% isopropanol): 11 mm
